# Publication PMC7489219 (Molecular Brain, 2020)
# Where a name gives a salt, the structure may show the parent alone.
# Target: T1, GluN2B (Homo sapiens, UniProt Q05586+Q13224)
# T1 construct: gene GRIN2B; with GluN1 (Q05586)
# Test: automated patch clamp of HEK293 cells stably expressing human GluN1/GluN2B
# Format: cell-based
# Conditions: not given
# T1 sequence (Q13224 27-1484, other chains not shown): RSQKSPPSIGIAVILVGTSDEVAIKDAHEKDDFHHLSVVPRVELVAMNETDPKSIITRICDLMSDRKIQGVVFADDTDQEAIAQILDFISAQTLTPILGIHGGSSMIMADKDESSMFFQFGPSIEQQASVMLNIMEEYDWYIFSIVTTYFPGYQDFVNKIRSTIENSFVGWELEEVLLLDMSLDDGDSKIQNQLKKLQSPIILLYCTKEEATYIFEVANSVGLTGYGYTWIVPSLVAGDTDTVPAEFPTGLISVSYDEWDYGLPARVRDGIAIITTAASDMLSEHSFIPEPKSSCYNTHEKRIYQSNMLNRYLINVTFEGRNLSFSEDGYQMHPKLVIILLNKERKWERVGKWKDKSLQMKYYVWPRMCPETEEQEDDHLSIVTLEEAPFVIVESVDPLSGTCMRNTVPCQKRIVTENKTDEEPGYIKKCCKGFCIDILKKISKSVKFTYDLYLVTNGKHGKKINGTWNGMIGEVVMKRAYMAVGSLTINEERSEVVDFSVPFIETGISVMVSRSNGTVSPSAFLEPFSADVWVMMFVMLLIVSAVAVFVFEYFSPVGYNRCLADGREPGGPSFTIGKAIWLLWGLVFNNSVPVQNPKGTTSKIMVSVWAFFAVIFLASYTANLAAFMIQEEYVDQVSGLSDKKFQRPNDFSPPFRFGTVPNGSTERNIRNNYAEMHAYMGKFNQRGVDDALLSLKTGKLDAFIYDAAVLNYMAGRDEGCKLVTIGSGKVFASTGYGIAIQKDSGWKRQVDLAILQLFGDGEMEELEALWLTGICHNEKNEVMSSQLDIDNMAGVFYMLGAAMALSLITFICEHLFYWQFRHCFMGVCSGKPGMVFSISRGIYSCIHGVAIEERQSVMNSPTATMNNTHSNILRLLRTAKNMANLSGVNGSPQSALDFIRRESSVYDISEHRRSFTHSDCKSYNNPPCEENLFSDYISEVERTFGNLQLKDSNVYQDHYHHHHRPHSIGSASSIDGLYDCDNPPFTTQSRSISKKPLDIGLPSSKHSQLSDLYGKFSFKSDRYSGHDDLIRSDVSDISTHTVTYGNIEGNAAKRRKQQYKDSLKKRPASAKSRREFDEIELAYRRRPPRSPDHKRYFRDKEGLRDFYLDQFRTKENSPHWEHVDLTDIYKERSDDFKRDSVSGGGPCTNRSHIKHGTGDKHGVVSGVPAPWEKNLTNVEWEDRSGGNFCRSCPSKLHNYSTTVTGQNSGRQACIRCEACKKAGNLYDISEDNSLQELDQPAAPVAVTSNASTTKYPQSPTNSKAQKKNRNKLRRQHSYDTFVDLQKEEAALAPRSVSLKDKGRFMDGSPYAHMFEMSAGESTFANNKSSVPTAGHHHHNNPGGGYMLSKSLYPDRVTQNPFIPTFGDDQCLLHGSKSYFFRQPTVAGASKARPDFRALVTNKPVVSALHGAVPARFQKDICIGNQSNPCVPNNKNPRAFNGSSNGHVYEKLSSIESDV
row,Compound,IC50 [µM]
1,N[C@H](CCCP(=O)(O)O)C(=O)O [D-APV],1.14

# Target: T2, GluN2A (Homo sapiens, UniProt Q05586+Q12879)
# T2 construct: gene GRIN2A
# Test: not given
# Conditions: not given
# T2 sequence (Q12879 23-1464, other chains not shown): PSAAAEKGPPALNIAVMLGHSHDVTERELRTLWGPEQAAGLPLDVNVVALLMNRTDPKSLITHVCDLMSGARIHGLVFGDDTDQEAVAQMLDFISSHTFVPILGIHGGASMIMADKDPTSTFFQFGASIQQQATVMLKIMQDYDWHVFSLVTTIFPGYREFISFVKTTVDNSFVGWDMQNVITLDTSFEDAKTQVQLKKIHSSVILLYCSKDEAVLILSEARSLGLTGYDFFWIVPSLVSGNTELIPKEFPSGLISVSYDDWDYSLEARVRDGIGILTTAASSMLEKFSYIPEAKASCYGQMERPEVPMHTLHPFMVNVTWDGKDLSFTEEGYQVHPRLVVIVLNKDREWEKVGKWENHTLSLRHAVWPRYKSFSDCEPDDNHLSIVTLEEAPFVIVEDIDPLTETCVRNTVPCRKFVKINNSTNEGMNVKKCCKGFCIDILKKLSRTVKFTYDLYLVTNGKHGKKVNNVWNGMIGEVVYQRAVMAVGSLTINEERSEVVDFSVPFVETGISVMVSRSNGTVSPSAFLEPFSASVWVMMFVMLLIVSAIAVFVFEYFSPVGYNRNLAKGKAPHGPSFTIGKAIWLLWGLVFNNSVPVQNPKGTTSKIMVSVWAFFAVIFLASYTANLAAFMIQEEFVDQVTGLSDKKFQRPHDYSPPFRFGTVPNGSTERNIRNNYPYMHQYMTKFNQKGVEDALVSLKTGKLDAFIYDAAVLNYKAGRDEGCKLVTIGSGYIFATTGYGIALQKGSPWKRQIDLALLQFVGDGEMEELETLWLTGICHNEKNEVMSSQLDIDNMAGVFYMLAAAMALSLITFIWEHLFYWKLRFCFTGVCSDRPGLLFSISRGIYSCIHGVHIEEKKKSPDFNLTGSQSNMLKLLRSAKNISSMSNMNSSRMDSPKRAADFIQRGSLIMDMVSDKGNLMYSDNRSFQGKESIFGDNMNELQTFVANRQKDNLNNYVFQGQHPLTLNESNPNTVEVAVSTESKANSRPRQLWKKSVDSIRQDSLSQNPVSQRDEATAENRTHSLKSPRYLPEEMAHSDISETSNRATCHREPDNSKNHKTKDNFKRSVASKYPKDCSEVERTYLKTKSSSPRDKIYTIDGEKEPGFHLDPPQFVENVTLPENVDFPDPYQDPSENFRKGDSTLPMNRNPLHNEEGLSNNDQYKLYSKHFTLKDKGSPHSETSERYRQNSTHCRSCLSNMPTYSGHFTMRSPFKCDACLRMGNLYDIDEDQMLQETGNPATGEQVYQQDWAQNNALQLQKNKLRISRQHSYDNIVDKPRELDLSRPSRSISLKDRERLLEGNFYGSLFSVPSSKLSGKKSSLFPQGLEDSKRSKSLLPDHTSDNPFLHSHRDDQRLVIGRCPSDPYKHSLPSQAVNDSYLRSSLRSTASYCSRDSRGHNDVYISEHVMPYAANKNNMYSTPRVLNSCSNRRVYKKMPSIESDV
row,Compound,IC50 [µM]
1,N[C@H](CCCP(=O)(O)O)C(=O)O [D-APV],1.48

# Tested on: T3, primary mouse cortical neurons
# T3 construct: primary cortical neurons, DIV 10
# Test: cells
# Design: Protection from NMDA-induced (30 uM, 10 min) neuronal death; Hoechst nuclear morphology by automated microscopy
# Conditions: Cortical neurone, 20 h, read-out: % inhibition, inhibition of NMDA-induced cell death (protection score), 30 min pre-treatment
# Procedure, shortened: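 On DIV 10, primary mouse cortical neurons were given compound at 10 μM for 30 min at 37 °C, then 30 μM NMDA for 10 min, washed, and kept 20 h with compound. Dead cells were scored by nuclear morphology, and % protection was derived from survival relative to vehicle + NMDA and untreated controls.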
row,Compound,inhibition at 10 µM [%]
1,CN1[C@@H]2CC[C@H]1C[C@@H](OC(=O)c1c[nH]c3ccccc13)C2 [Tropisetron],-4.08
2,O=C(OC1C[C@H]2CC[C@@H](C1)[N+]21CCCC1)C(O)(c1ccccc1)c1ccccc1 (stereo partly drawn) [Trospium chloride (Sanctura)],7.49
3,C[C@@H]1O[C@@H](OC[C@H]2O[C@@H](Oc3c(-c4ccc(OCCO)c(OCCO)c4)oc4cc(OCCO)cc(O)c4c3=O)[C@H](O)[C@@H](O)[C@@H]2O)[C@H](O)[C@H](O)[C@H]1O [Troxerutin],23.8
4,C[C@H](CCC(=O)O)[C@H]1CC[C@H]2[C@@H]3[C@@H](O)C[C@@H]4C[C@H](O)CC[C@]4(C)[C@H]3CC[C@]12C [Ursodiol (Actigal Urso)],35.3
5,C[C@H]1[C@H](C)CC[C@]2(C(=O)O)CC[C@]3(C)C(=CC[C@@H]4[C@@]5(C)CC[C@H](O)C(C)(C)[C@@H]5CC[C@]43C)[C@H]12 [Ursolic acid (Malol)],6.94
6,CCCCC(=O)N(Cc1ccc(-c2ccccc2-c2nn[nH]n2)cc1)[C@H](C(=O)O)C(C)C [Valsartan (Diovan)],-0.714
7,COc1cc2/c(=N/c3ccc(Br)cc3F)nc[nH]c2cc1OCC1CCN(C)CC1 [Vandetanib (Zactima)],-8.86
8,COc1cc(C=O)ccc1O [Vanillin],-1.73
9,COc1cc(CCC(C)=O)ccc1O [Vanillylacetone],7.76
10,CCCc1nc(C)c2c(=O)nc(-c3cc(S(=O)(=O)N4CCN(CC)CC4)ccc3OCC)[nH]n12 [Vardenafil (Vivanza)],-5.64
11,COc1ccc(C(CN(C)C)C2(O)CCCCC2)cc1 (stereo not drawn) [Venlafaxine],22.6
12,COC[C@@H](c1ccc(C(F)(F)F)cc1)N1CCN(C2(C)CCN(C(=O)c3c(C)ncnc3C)CC2)C[C@@H]1C [Vicriviroc Malate],0.113
13,Nc1ncnc2c1ncn2[C@@H]1O[C@H](CO)[C@@H](O)[C@@H]1O [Vidarabine (Vira-A)],20.1
14,CC[C@]1(O)C[C@H]2CN(CCc3c([nH]c4ccccc34)[C@@](C(=O)OC)(c3cc4c(cc3OC)N(C=O)[C@H]3[C@@](O)(C(=O)OC)[C@H](OC(C)=O)[C@]5(CC)C=CCN6CC[C@]43[C@@H]65)C2)C1 [Vincristine],-7.5
15,CCC1=C[C@@H]2CN(C1)Cc1c([nH]c3ccccc13)[C@@](C(=O)OC)(c1cc3c(cc1OC)N(C)[C@H]1[C@@](O)(C(=O)OC)[C@H](OC(C)=O)[C@]4(CC)C=CCN5CC[C@]31[C@@H]54)C2 [Vinorelbine (Navelbine)],-1.98
16,C[C@@H](c1ncncc1F)[C@](O)(Cn1cncn1)c1ccc(F)cc1F [Voriconazole],17.5
17,O=c1c2ccccc2oc2ccccc12 [Xanthone (Genicide)],7.85
18,COC(=O)[C@@H]1[C@H]2C[C@H]3c4[nH]c5ccccc5c4CCN3C[C@@H]2CC[C@@H]1O [Yohimbine hydrochloride (Antagonil)],7.7
19,Nc1ccn([C@H]2CC[C@@H](CO)O2)c(=O)n1 [Zalcitabine],3.28
20,CC(c1cc2ccccc2s1)N(O)C(N)=O (stereo not drawn) [Zileuton],-10.2
21,O=C1Cc2cc(CCN3CCN(c4nsc5ccccc45)CC3)c(Cl)cc2N1 [Ziprasidone hydrochloride],8.38
22,O=P(O)(O)C(O)(Cn1ccnc1)P(=O)(O)O [Zoledronic Acid (Zoledronate)],-0.211
23,CN(C)CCc1c[nH]c2ccc(C[C@H]3COC(=O)N3)cc12 [Zolmitriptan (Zomig)],41.2
24,NS(=O)(=O)Cc1noc2ccccc12 [Zonisamide],-5.91
25,CC[C@H](CC[C@@H](C)[C@H]1CC[C@H]2[C@@H]3CC=C4C[C@@H](O)CC[C@]4(C)[C@H]3CC[C@]12C)C(C)C [β-Sitosterol],-0.368
